Among the data in patent US9447029B2, “Fluorinated arylalkylaminocarboxamide derivatives” (NEWRON PHARMACEUTICALS S.P.A., priority 2011, dated 2016) are IC50 values, retold here.

Counter-ions that a name gives are not always drawn. Bounds are passed on as bounds.

The first data set has as its system TTXs sodium channels (ND7/23 cells). Briefly: TTXs-sodium channel influx assay (fluorescence, membrane potential kit). The format is cell-based, rat. The following applies: veratridine 100 μM. The procedure:
ND7/23 rat dorsal root ganglion-derived cell line endogenously expresses a mixed population of TTXs sodium channels (such as Nav1.3, Nav1.2, Nav1.1, Nav1.6). These cells lack of TTXr sodium channels as shown by the absence of their respective transcripts. ND7/23 cells are grown in Dulbecco's Modified Eagle Medium (DMEM, Invitrogen, CA—USA) supplemented with 10% Foetal Bovine Serum (FBS, Invitrogen, CA—USA) and 1 mM sodium piruvate. The cells are seeded at 50,000 cells/well on 96 poly-L-lysine-coated plates and further incubated for 18-24 h before use.
The Membrane Potential Kit Assay (Molecular Devices, CA—USA), based on a negatively charged fluorescent dye able to monitor changes in membrane potential caused by the sodium influx due to the channel opening, is used for the assay.
Cells are incubated with the dye loading for 30 minutes at 25° C. Then, 100 nM of the toxin Anemonia sulcata (used as enhancer of the channel opener response) alone or in the presence of TTX (as reference standard) or test compound are added for further 15 minutes.
The fluorescence (excitation: 530 nm, emission: 565 nm wavelength) is measured before and after (40-45 s) the automated injection of the sodium channel opener veratridine (100 μM) using a Victor plate reader (Perkin Elmer, MA—USA).
The inhibition curves are calculated from 5 concentrations, each in triplicate, and the IC50 determined using a linear regression analysis.
The results, obtained with some compounds which are representative of the entire class of compounds of the invention are reported in Table 1.
Compound `CCCCCOc1cccc(C(F)(F)CNCC(=O)N(C)C)c1` [Example 1-2, 2-[2,2-Difluoro-2-(3-pentyloxyphenyl)-ethylamino]-N,N-dimethyl-acetamide, hydrochloride] showed a half-inhibitory concentration (IC50) of 1.3 µM.
For `CCCCOc1cccc(C(F)(F)CNCC(=O)N2CCC2)c1` [Example 1-42, 2-[2,2-Difluoro-2-(3-butoxyphenyl)-ethylamino)-1-(azetidin-1-yl)-ethanone, hydrochloride], the half-maximal inhibitory concentration (IC50) is 5 µM.
On the same count and under the same terms, to `CCCCOc1cccc(C(F)(F)CNC(C)C(=O)N(C)C)c1` (stereo not shown) [Example 2-1, 2-[2,2-Difluoro-2-(3-butoxyphenyl)-ethylamino]-N,N-dimethyl-propanamide, hydrochloride] belongs 20 µM.
Still for that read-out and setting: next, `CCCCOc1cccc(C(F)(F)CNC(COC)C(=O)N(C)C)c1` (stereo not shown) [Example 2-2, 2-[2,2-Difluoro-2-(3-butoxyphenyl)-ethylamino]-3-methoxy-N,N-dimethyl-propanamide]: 6.2 µM; `CCCCOc1cccc(C(F)(F)CNCC(=O)N(CCC)CCC)c1` [Example 1-3, 2-[2,2-Difluoro-2-(3-butoxyphenyl)-ethylamino]-N,N-dipropyl-acetamide, hydrochloride]: 0.58 µM; `CN1CCN(C(=O)CNCC(F)(F)c2cccc(OCCCC(F)(F)F)c2)CC1` [Example 1-28, 2-{2,2-Difluoro-2-[3-(4,4,4-trifluorobutoxy)-phenyl)-ethylamino}-1-(4-methylpiperazin-1-yl)-ethanone, hydrochloride]: 3.2 µM.
Same read-out and setting: to `CCCCOc1cccc(C(F)(F)CNCC(=O)N2CCN(C)CC2)c1` [Example 1-26, 2-[2,2-Difluoro-2-(3-butoxyphenyl)-ethylamino]-1-(4-methylpiperazin-1-yl)-ethanone, hydrochloride] belongs 23.2 µM.
In the case of `CCCCOc1cccc(C(F)CNCC(=O)N(C)C)c1` (stereo not shown) [Example 4-1, 2-[2-Fluoro-2-(3-butoxyphenyl)-ethylamino]-N,N-dimethyl-acetamide, hydrochloride], the IC50 came out at 1.5 µM.
Same read-out and setting: to `CN(C)C(=O)CNCC(F)(F)c1cccc(OCCCC(F)(F)F)c1` [Example 1-7, 2-{2,2-Difluoro-2-[3-(4,4,4-trifluorobutoxy)-phenyl]-ethylamino}-N,N-dimethyl-acetamide, hydrochloride] belongs 3.6 µM.
Same read-out and setting: next, `CCCCCCOc1cccc(C(F)(F)CNCC(=O)N(C)C)c1` [Example 1-6, 2-[2,2-Difluoro-2-(3-hexyloxyphenyl)-ethylamino]-N,N-dimethyl-acetamide, hydrochloride]: 0.14 µM; `CCCCOc1cccc(C(F)(F)CNCC(=O)N(CC)CC)c1` [Example 1-32, 2-[2,2-Difluoro-2-(3-butoxyphenyl)-ethylamino]-N,N-diethyl-acetamide, hydrochloride]: 2.8 µM.
With `CCCCOc1cccc(C(F)(F)CNCC(=O)N2CCCCC2)c1` [Example 1-29, 2-[2,2-Difluoro-2-(3-butoxyphenyl)-ethylamino]-1-(piperidin-1-yl)-ethanone, hydrochloride], the midpoint of inhibition, the IC50, lay at 1.8 µM.
Regarding `O=C(CNCC(F)(F)c1cccc(OCCCC(F)(F)F)c1)N1CCCC1` [Example 1-18, 2-{2,2-Difluoro-2-[3-(4,4,4-trifluorobutoxy)-phenyl]-ethylamino}-1-(pyrrolidin-1-yl)-ethanone], the IC50 was determined as 0.95 µM.
On the same count and under the same terms, to `CN(C)C(=O)CNCC(F)(F)c1cccc(OCc2ccccc2)c1` [Example 1-14, 2-[2,2-Difluoro-2-(3-benzyloxyphenyl)-ethylamino]-N,N-dimethyl-acetamide, hydrochloride] belongs 1.2 µM.
On the same count and under the same terms, next, `CCCCOc1cccc(C(F)(F)CN(C)CC(=O)N(C)C)c1` [Example 3-1, 2-{[2,2-Difluoro-2-(3-butoxyphenyl)-ethyl]-methylamino}-N,N-dimethyl-acetamide, hydrochloride]: 2.3 µM.
`CCCCOc1cccc(C(F)(F)CN(CCOC)CC(=O)N(C)C)c1` [Example 3-3, 2-{[2,2-Difluoro-2-(3-butoxyphenyl)-ethyl]-(2-methoxyethyl)-amino}-N,N-dimethyl-acetamide, hydrochloride] showed a half-maximal inhibitory concentration (IC50) of 1.4 µM.
Same read-out and setting: to `CCCCOc1cccc(C(F)(F)CNCC(=O)N2CCCC2)c1` [Example 1-15, 2-[2,2-Difluoro-2-(3-butoxyphenyl)-ethylamino]-1-(pyrrolidin-1-yl)-ethanone, hydrochloride] belongs 1.1 µM; to `CCCCOc1cccc(C(F)(F)CNCC(=O)N(C)C)c1` [Example 1-1, 2-[2,2-Difluoro-2-(3-butoxyphenyl)-ethylamino]-N,N-dimethyl-acetamide, hydrochloride], 1 µM.

A further data set deals with CYP2D6 (Homo sapiens (Human), UniProt P10635). Kind of data set: Inhibition of Cytochrome P4502D6 (CYP2D6) using Supersomes. The class given is in vitro ADME. The following applies: AMMC substrate, read-out: IC50 (Fluorinated derivative). The method, then: The inhibition of Cytochrome P4502D6 (CYP2D6) is assessed by performing in vitro inhibition studies using Supersomes, microsomes derived from baculovirus infected insect cells; the baculoviruses are engineered to express one or more drug metabolizing enzyme cDNAs. Supersomes catalyze the same enzymatic reactions as human liver microsome enzymes, but they contain much higher enzyme activity than other microsome sources (Crespi C. L. and Penman B. W., Advances Pharmacology, 43, 171-188 (1997); Crespi C. L. and Miller V. P., Analytical Biochemistry, 248, 188-190 (1997)).
Sequence of CYP2D6 (P10635 whole entry): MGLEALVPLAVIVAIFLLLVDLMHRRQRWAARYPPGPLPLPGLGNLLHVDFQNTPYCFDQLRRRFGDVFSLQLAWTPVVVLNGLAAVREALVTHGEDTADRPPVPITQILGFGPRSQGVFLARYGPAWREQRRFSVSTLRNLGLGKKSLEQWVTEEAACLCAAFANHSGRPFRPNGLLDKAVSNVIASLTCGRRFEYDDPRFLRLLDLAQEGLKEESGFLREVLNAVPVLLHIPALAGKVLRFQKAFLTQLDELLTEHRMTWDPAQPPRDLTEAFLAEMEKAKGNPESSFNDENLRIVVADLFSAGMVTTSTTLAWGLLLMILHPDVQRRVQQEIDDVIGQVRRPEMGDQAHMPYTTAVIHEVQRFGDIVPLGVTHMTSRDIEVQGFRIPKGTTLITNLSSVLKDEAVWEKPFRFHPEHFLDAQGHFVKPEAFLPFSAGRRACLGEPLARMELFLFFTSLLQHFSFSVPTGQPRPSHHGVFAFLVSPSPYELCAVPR
Kits with Supersomes are Supplied by GENTEST (MA, USA).
Test compound is dissolved in DMSO 500× the highest final concentration desired in the IC50 assay. 30 ml of deionized water is pre-warmed to 37° C. and all kit components are placed on ice. For each well of column 1, 149.4 μL of NADPH-Cofactor Mix, (187.5 μl of Cofactors, 150 μl of G6PDH, 100 μl of Control Protein and 14.56 ml of 37° C. water) are added.
In each well from Column 2 to 12, 100 μl of Cofactor/DMSO mix (40 μL DMSO in 9.96 ml of NADPH-Cofactor Mix) are added. To each well of column 1, 0.6 μl of test compound or positive control are added. 50 μl from each well of column 1 are serially diluted to column 8. The extra 50 μl from column 8 are discarded. The plate is covered and pre-incubated at 37° C. for 10 minutes.
Preparation of enzyme/substrate mix: 7.92 ml of pre-warmed deionized water, 75 μl of enzyme, 3 μl of 10 mM AMMC and 2 ml of pre-warmed buffer are mixed.
After the pre-incubation time (10′), 100 μl of enzyme/substrate mix to each well from column 1 to 10 are added. The plate is incubated at 37° C. for 30 minutes. After this time, 75 μl of Stop Reagent to each well are added. For blank controls, 100 μl of enzyme/substrate mix are added to columns 11 and 12.
Plates are read at the Victor plate reader (Perkin Elmer, MA—USA) at 390 nm excitation and 460 nm emission wavelengths.
`CCCCCOc1cccc(C(F)(F)CNCC(=O)N(C)C)c1` [Example 1-2, 2-[2,2-Difluoro-2-(3-pentyloxyphenyl)-ethylamino]-N,N-dimethyl-acetamide, hydrochloride]: the IC50 is over 40 µM.
The same measure, in the same setting: to `CCCCOc1cccc(C(F)(F)CNC(C)C(=O)N(C)C)c1` (stereo not shown) [Example 2-1, 2-[2,2-Difluoro-2-(3-butoxyphenyl)-ethylamino]-N,N-dimethyl-propanamide, hydrochloride] belongs over 40 µM; to `CCCCOc1cccc(C(F)(F)CNCC(=O)N(CCC)CCC)c1` [Example 1-3, 2-[2,2-Difluoro-2-(3-butoxyphenyl)-ethylamino]-N,N-dipropyl-acetamide, hydrochloride], 23.9 µM.

Still in this data set, the particulars now being: AMMC substrate, reference standards of the closest prior art, read-out: IC50 (Corresponding de-fluorinated derivative).
With `CCCCOc1cccc(CCNCC(=O)N2CCCC2)c1` [2-[2-(3-Butoxyphenyl)-ethylamino]-1-(pyrrolidin-1-yl)-ethanone, hydrochloride], the IC50 was determined as 3 µM.
On the same count and under the same terms, to `CCCCOc1cccc(CCNCC(=O)N(CC)CC)c1` [2-[2-(3-Butoxyphenyl)-ethylamino]-N,N-diethyl-acetamide, hydrochloride] belongs 2.5 µM.
For `O=C(CNCCc1cccc(OCCCC(F)(F)F)c1)N1CCCC1` [2-{2-[3-(4,4,4-trifluorobutoxy)-phenyl]-ethylamino}-1-(pyrrolidin-1-yl)-ethanone, hydrochloride], the half-inhibitory concentration (IC50) was found to be 5 µM.
On the same count and under the same terms, next, `CCCCOc1cccc(CCN(CCOC)CC(=O)N(C)C)c1` [2-{[2-(3-Butoxyphenyl)-ethyl]-(2-methoxyethyl)-amino}-N,N-dimethyl-acetamide, hydrochloride]: 3.4 µM.
For the compound `CCCCOc1cccc(CCNCC(=O)N2CCCCC2)c1` [2-[2-(3-Butoxyphenyl)-ethylamino]-1-(piperidin-1-yl)-ethanone, hydrochloride], the IC50 is 1.1 µM.
Same read-out and setting: to `CCCCOc1cccc(CCNCC(=O)N(C)C)c1` [2-[2-(3-Butoxyphenyl)-ethylamino]-N,N-dimethyl-acetamide, hydrochloride] belongs 5.8 µM; to `CN(C)C(=O)CNCCc1cccc(OCc2ccccc2)c1` [2-[2-(3-Benzyloxyphenyl)-ethylamino]-N,N-dimethyl-acetamide, hydrochloride], 10.6 µM.
Same read-out and setting: next, `CCCCCOc1cccc(CCNCC(=O)N(C)C)c1` [2-[2-(3-Pentyloxyphenyl)-ethylamino]-N,N-dimethyl-acetamide, hydrochloride]: 3.5 µM; `O=C(CNCCc1cccc(OCCCC(F)(F)F)c1)N1CCOCC1` [2-{2-[3-(4,4,4-trifluorobutoxy)phenyl]-ethylamino}-1-(morpholin-4-yl)-ethanone, hydrochloride]: 1.8 µM.
On the same count and under the same terms, to `CCCCOc1cccc(CCNCC(=O)N(CCC)CCC)c1` [2-[2-(3-Butoxyphenyl)-ethylamino]-N,N-dipropyl-acetamide, hydrochloride] belongs 0.7 µM; to `CCCCCCOc1cccc(CCNCC(=O)N(C)C)c1` [2-[2-(3-Hexyloxyphenyl)-ethylamino]-N,N-dimethyl-acetamide, hydrochloride], 0.9 µM; to `CCCCOc1cccc(CCN(CCCOC)CC(=O)N(C)C)c1` [2-{[2-(3-Butoxyphenyl)-ethyl]-(3-methoxypropyl)-amino}-N,N-dimethyl-acetamide, hydrochloride], 7.3 µM.
For `CCCCOc1cccc(CCNC(C)C(=O)N(C)C)c1` (stereo not shown) [2-[2-(3-Butoxyphenyl)-ethylamino]-N,N-dimethyl-propanamide, hydrochloride], the 50% inhibitory concentration (IC50) is 5.8 µM.

What is called IC50 is the concentration that inhibits the measured activity by half.
